The results in this text go back to ChEMBL document CHEMBL4152208, “Synthesis and structure-activity relationships of quinolinone and quinoline-based P2X7 receptor antagonists and their anti-sphere formation activities in glioblastoma cells” (Eur J Med Chem, 2018).

For data set [1], the target named is T1, P2X purinoceptor 7 (Homo sapiens) (UniProt Q99572).
T1 sequence (whole entry): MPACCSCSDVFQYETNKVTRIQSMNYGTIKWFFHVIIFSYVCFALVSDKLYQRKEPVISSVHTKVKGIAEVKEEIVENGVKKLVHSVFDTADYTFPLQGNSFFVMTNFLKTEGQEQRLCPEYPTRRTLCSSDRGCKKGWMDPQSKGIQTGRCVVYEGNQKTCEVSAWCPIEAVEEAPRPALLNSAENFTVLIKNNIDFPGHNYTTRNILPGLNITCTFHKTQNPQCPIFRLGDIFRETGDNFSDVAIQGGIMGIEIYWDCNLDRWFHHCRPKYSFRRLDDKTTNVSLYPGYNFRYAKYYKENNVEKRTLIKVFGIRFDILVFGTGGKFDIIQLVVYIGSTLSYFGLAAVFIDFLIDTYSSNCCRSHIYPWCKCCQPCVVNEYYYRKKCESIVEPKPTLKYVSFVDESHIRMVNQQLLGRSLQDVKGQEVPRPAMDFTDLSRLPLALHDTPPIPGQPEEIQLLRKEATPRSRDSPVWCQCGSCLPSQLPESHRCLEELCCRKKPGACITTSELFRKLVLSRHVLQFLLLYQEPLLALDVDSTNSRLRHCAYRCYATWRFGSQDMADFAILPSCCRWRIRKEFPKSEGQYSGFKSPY
The data set is described as follows: Antagonist activity at human P2X7 receptor expressed in HEK293 cells assessed as inhibition of BzATP-induced EtBr uptake at 10 uM after 2 hrs by fluorescence assay relative to control. The format is cell-based.

The target of data set [2] is T2, P2X purinoceptor 7 (Homo sapiens, UniProt Q99572).
T2 sequence (Q99572 whole entry): T1 sequence (whole entry)
Description: Antagonist activity at human P2X7 receptor expressed in HEK293 cells assessed as inhibition of BzATP-induced EtBr uptake after 2 hrs by fluorescence assay relative to control. The format is cell-based.

The target in data set [3] is T1, P2X purinoceptor 7 (Homo sapiens). The data set is described as follows: Antagonist activity at human P2X7 receptor expressed in HEK293 cells assessed as inhibition of BzATP-induced EtBr uptake at 1 uM after 2 hrs by fluorescence assay relative to control. It is filed as cell-based.
Data set [4] has the same target. Description: Antagonist activity at P2X7 in LPS/IFN gamma differentiated human THP-1 cells assessed as inhibition of BzATP-induced IL-1beta release at 10 uM preincubated for 30 mins followed by BzATP stimulation for 30 mins by ELISA. It is filed as cell-based.
The target is the same in data set [5]. Description: Antagonist activity at P2X7 in LPS/IFN gamma differentiated human THP-1 cells assessed as inhibition of BzATP-induced IL-1beta release at 1 uM preincubated for 30 mins followed by BzATP stimulation for 30 mins by ELISA. It is filed as cell-based.
In data set [6] the target is T2, P2X purinoceptor 7. Description: Antagonist activity at P2X7 in LPS/IFN gamma differentiated human THP-1 cells assessed as inhibition of BzATP-induced IL-1beta release preincubated for 30 mins followed by BzATP stimulation for 30 mins by ELISA. It is filed as cell-based.
A short description of data set [7]: Cytotoxicity against HEK293 cells expressing human P2X7 receptor assessed as cell survival at 10 uM by MTT assay relative to control. It is filed as cell-based. The following applies: read-out: Survival.
The nature of data set [8]: Metabolic stability in human liver microsomes assessed as parent compound remaining at 1 uM up to 30 mins in presence of NADPH by LC-MS/MS analysis. The format is ADME, microsome. Conditions: read-out: Stability.

For `COC(=O)c1cc2c(NC(=O)C34CC5CC(CC(C5)C3)C4)cccc2n(Cc2ccc(Cl)cc2)c1=O`, the inhibition in data set [1] is 88%; in data set [3], 78%. In addition, in data set [2], the IC50 is 723 nM.
Take `COC(=O)c1cc2c(NC(=O)C34CC5CC(CC(C5)C3)C4)cccc2n(Cc2ccc([N+](=O)[O-])cc2)c1=O`: the inhibition turned out to be 85% in data set [1], 61% in data set [3], 42% in data set [4] and 38% in data set [5]. In addition, in data set [2], the IC50 was found to be 809 nM.
For the compound `O=C(CC12CC3CC(CC(C3)C1)C2)Nc1cccc2nc(-c3ccc(Cl)cc3)ccc12`, the inhibition in data set [1] was found to be 90%; in data set [3], 89%. In addition, the IC50 came out at 123 nM in data set [2] and 178 nM in data set [6]. In addition, the viability at 10 µM in data set [7] was 98%.
Take `COC(=O)c1cc2c(NC(=O)C34CC5CC(CC(C5)C3)C4)cccc2n(Cc2ccc(Br)cc2)c1=O`: the inhibition in data set [1] stood at 80%; in data set [3], 65%. The IC50 in data set [2] is 810 nM.
`COC(=O)c1cc2c(NC(=O)C34CC5CC(CC(C5)C3)C4)cccc2n(Cc2ccc(F)cc2)c1=O`: the inhibition in data set [1] was determined as 86%; in data set [3], 66%; in data set [4] it was 35%; in data set [5] it was 12%. Moreover, the IC50 in data set [2] came out at 888 nM.
`COC(=O)c1cc2c(NC(=O)C3CCCCC3)cccc2n(Cc2ccc(OC)cc2)c1=O`: the results for the inhibition in data set [1] and in data set [3] were 88% and 67%, respectively. For the same compound, the concentration for half-maximal inhibition (IC50) in data set [2] worked out at 810 nM.
Regarding `O=C(CC12CC3CC(CC(C3)C1)C2)Nc1cccc2nc(-c3ccc([N+](=O)[O-])cc3)ccc12`, the inhibition in data set [1] is 94%; in data set [3] it was 79%. The results for the IC50 in data set [2] and in data set [6] were 73 nM and 113 nM, respectively. In data set [7], the viability at 10 µM was 93%.
For the compound `CCOC(=O)c1cc2c(NC(=O)C34CC5CC(CC(C5)C3)C4)cccc2n(Cc2ccc(OC)cc2)c1=O`, the inhibition amounted to 88% in data set [1], 86% in data set [3], 44% in data set [4] and 7% in data set [5]. Also, the IC50 in data set [2] came out at 62 nM.
As for `O=C(CC12CC3CC(CC(C3)C1)C2)Nc1cccc2nc(-c3ccccc3)ccc12`, the values for the inhibition in data set [1] and in data set [3] were 86% and 78%, respectively. The IC50 in data set [2] amounted to 447 nM; in data set [6] it was 434 nM. For the same compound, the viability at 10 µM in data set [7] stood at 98%.
For the compound `O=C(CC1CCCCC1)Nc1cccc2nc(Cl)ccc12`, the inhibition in data set [1] was 95%; in data set [3] it was 90%. In addition, the IC50 is 385 nM in data set [2] and 335 nM in data set [6]. Also, in data set [7], the viability at 10 µM was determined as 92%.
For `CCCOC(=O)c1cc2c(NC(=O)C34CC5CC(CC(C5)C3)C4)cccc2n(Cc2ccc(OC)cc2)c1=O`, the inhibition in data set [1] turned out to be 87%; in data set [3] it was 82%; in data set [4], 28%; in data set [5] it was 11%. In data set [2], the IC50 came out at 263 nM.
Turning to `CN([C@@H](Cc1ccc(OS(=O)(=O)c2cccc3cnccc23)cc1)C(=O)N1CCN(c2ccccc2)CC1)S(=O)(=O)c1cccc2cnccc12`, the inhibition in data set [3] is 79%; in data set [4], 96%. Besides, the viability at 10 µM in data set [7] was 93%.
Turning to `COC(=O)c1cc2c(NC(=O)CC34CC5CC(CC(C5)C3)C4)cccc2n(Cc2ccc(OC)cc2)c1=O`, the inhibition was determined as 76% in data set [1] and 65% in data set [3]. Further, the IC50 in data set [2] amounted to 861 nM.
As for `COC(=O)c1cc2c(NC(=O)CC3CCCCC3)cccc2n(Cc2ccc(OC)cc2)c1=O`, the inhibition amounted to 86% in data set [1] and 63% in data set [3]. Further, in data set [2], the concentration for half-maximal inhibition (IC50) was found to be 875 nM.
For the compound `COc1ccc(CCN(C)CCCC(C#N)(c2ccc(OC)c(OC)c2)C(C)C)cc1OC` (stereo unspecified), in data set [8], the remaining at 0.5 h, 1 µM was determined as 10.5%.
Turning to `COc1ccc(Cn2c(=O)c(C(=O)OC(C)C)cc3c(NC(=O)C45CC6CC(CC(C6)C4)C5)cccc32)cc1`, the inhibition was found to be 77% in data set [1] and 47% in data set [3].
